According to patent US10844049B2, “GLP-1R agonists and uses thereof” (QILU REGOR THERAPEUTICS INC., priority 2018, dated 2020):

Target: GLP1R (Homo sapiens, UniProt P43220)
Experiment: GLP1R cAMP HTRF assay, HEK293/GLP-1R/CRE/Luc (HEK293T cells)
Format: cell-based
Settings: read-out: EC50
Method in brief: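 cAMP accumulation via HTRF after 30 min, 37 °C exposure of 1000 receptor-expressing cells/well to compound (0.5% DMSO final) in IBMX (500 μM)/0.1% BSA DPBS.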

Chain of GLP1R (P43220 24-463): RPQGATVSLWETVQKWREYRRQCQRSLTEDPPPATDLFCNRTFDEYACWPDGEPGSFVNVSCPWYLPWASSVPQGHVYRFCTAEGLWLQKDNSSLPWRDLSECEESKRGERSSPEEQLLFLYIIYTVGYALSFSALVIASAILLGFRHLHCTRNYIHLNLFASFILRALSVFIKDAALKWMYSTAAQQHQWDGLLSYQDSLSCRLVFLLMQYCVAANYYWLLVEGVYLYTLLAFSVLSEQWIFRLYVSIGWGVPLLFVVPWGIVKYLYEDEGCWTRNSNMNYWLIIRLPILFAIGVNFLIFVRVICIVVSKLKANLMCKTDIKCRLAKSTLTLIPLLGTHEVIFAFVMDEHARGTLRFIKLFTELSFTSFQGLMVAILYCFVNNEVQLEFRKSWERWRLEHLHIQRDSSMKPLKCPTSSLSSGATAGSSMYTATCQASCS

Compound | EC50 [nM]
O=C(O)c1ccc2nc(CN3CCN(c4cccc(OCc5ccc(C(F)(F)F)cc5)c4)CC3)n(C[C@@H]3CCO3)c2c1 [Compound 189] | ≤ 150
O=C(O)c1ccc2nc(CN3CC=C(c4cc5nc[nH]c5c(OCc5ccc(Cl)cc5F)n4)CC3)n(C[C@@H]3CCO3)c2c1 [Compound 58, (S)-2-((4-(4-((4-chloro-2-fluorobenzyl)oxy)-3H-imidazo[4,5-c]pyridin-6-yl)-3,6-dihydropyridin-1(2H)-yl)methyl)-1-(oxetan-2-ylmethyl)-1H-benzo[d]imidazole-6-carboxylic acid] | > 1000
(S)-2-((4-(2-((4-(cyclopropylethynyl)-2-fluorobenzyl)oxy)pyrimidin-4-yl)piperazin-1-yl)methyl)-1-(oxetan-2-ylmethyl)-1H-benzo[d]imidazole-6-carboxylic add [Compound 194] | ≤ 150
O=C(O)c1ccc2nc(CN3CC=C(c4cccc(OCc5c(Cl)cccc5Cl)n4)CC3)n(C[C@@H]3CCO3)c2c1 [Compound 138] | ≤ 1000
O=C(NS(=O)(=O)C(F)(F)F)c1ccc2nc(CN3CC=C(c4cccc(OCc5ccc(Cl)cc5F)n4)CC3)n(C[C@@H]3CCO3)c2c1 [Compound 173, (S)-2-((6-((4-chloro-2-fluorobenzyl)oxy)-3′,6′-dihydro-[2,4′-bipyridin]-1′(2′H)-yl)methyl)-1-(oxetan-2-ylmethyl)-N-((trifluoromethyl)sulfonyl)-1H-benzo[d]imidazole-6-carboxamide] | ≤ 1000
O=C(O)c1ccc2nc(CC3CCN(c4cccc(OCc5ccc(F)cc5F)n4)CC3)n(C[C@@H]3CCO3)c2n1 [Compound 229, (S)-2-((l-(6-((2,4-difluorobenzyl)oxy)pyridin-2-yl)piperidin-4-yl)methyl)-3-(oxetan-2-ylmethyl)-3H-imidazo[4,5-b]pyridine-5-carboxylic acid] | ≤ 15
O=C(O)c1ccc2nc(CN3CC=C(c4cccc(OCc5ccnc(Cl)c5)n4)CC3)n(C[C@@H]3CCO3)c2c1 [Compound 162, (S)-2-((6-((2-chloropyridin-4-yl)methoxy)-3′,6′-dihydro-[2,4′-bipyridin]-1′(2′H)-yl)methyl)-1-(oxetan-2-ylmethyl)-1H-benzo[d]imidazole-6-carboxylic acid] | ≤ 150
O=C(O)c1ccc2nc(CN3CC=C(c4cccc(OCc5cnccc5C(F)(F)F)n4)CC3)n(C[C@@H]3CCO3)c2c1 [Compound 150, (S)-1-(oxetan-2-ylmethyl)-2-((6-((4-(trifluoromethyl)pyridin-3-yl)methoxy)-3′,6′-dihydro-[2,4′-bipyridin]-1′(2′H)-yl)methyl)-1H-benzo[d]imidazole-6-carboxylic add] | ≤ 1000
O=C(O)c1ccc2nc(CN3CC=C(c4ncc(F)c(OCc5ccc(Cl)cc5F)n4)CC3)n(C[C@@H]3CCO3)c2c1 [Compound 123] | ≤ 15
O=C(O)c1ccc2nc(CN3CC=C(c4cc(NCc5ccc(Cl)cc5F)ccc4F)CC3)n(C[C@@H]3CCO3)c2c1 [Compound 127, (S)-2-((4-(5-((4-chloro-2-fluorobenzyl)amino)-2-fluorophenyl)-3,6-dihydropyridin-1(2H)-yl)methyl)-1-(oxetan-2-ylmethyl)-1H-benzo[d]imidazole-6-carboxylic acid] | ≤ 150
C#Cc1ccc(COc2cccc(C3=CCN(Cc4nc5ccc(C(=O)O)cc5n4C[C@@H]4CCO4)CC3)n2)c(F)c1 [Compound 68, (S)-2-((6-((4-ethynyl-2-fluorobenzyl)oxy)-3‘f’-dihydro-[2,4′-bipyridin]-1′(2′H)-yl)methyl)-1-(oxetan-2-ylmethyl)-1H-benzo[d]imidazole-6-carboxylic acid] | ≤ 15
O=C(O)c1ccc2nc(CN3CC=C(c4cccc(OCc5ccc(Cl)cc5F)n4)CC3)n(C[C@@H]3CCO3)c2n1 [Compound 169, (S)-2-((6-((4-chloro-2-fluorobenzyl)oxy)-3′,6′-dihydro-[2,4′-bipyridin]-1′(2′H)-yl)methyl)-3-(oxetan-2-ylmethyl)-3H-imidazo[4,5-b]pyridine-5-carboxylic acid] | ≤ 15
O=C(O)c1ccc2nc(CN3CC=C(c4cccc(OCc5ccccc5C(F)(F)F)n4)CC3)n(C[C@@H]3CCO3)c2c1 [Compound 135, (S)-1-(oxetan-2-ylmethyl)-2-((6-((2-(trifluoromethyl)benzyl)oxy)-3′,6′-dihydro-[2,4′-bipyridin]-1′(2′H)-yl)methyl)-1H-benzo[d]imidazole-6-carboxylic acid] | ≤ 150
O=C(O)c1ccc2nc(CN3CC=C(c4cccc(OCc5ccc(Cl)cc5F)n4)CC3)n(C[C@@H]3CCO3)c2c1F [Compound 171, (S)-2-((6-((4-chloro-2-fluorobenzyl)oxy)-3′,6′-dihydro-[2,4′-bipyridin]-1′(2′H)-yl)methyl)-7-fluoro-1-(oxetan-2-ylmethyl)-1H-benzo[d]imidazole-6-carboxylic acid] | ≤ 15
O=C(O)c1ccc2nc(CN3CC=C(c4cccc(OCc5cccnc5Cl)n4)CC3)n(C[C@@H]3CCO3)c2c1 [Compound 163] | ≤ 15
N#Cc1ccc(COc2ccc(F)c(C3=CCN(Cc4nc5ccc(C(=O)O)cc5n4C[C@@H]4CCO4)CC3)n2)c(F)c1 [Compound 223, (S)-2-((6-((4-cyano-2-fluorobenzyl)oxy)-3-fluoro-3′,6′-dihydro-[2,4′-bipyridin]-1(2′H)-yl)methyl)-1-(oxetan-2-ylmethyl)-1H-benzo[d]imidazole-6-carboxylic acid] | ≤ 15
CN(Cc1ccc(Cl)cc1F)c1cccc(N2CCN(Cc3nc4ccc(C(=O)O)cc4n3C[C@@H]3CCO3)CC2)n1 [Compound 2, (S)-2-((4-(6-((4-chloro-2-fluorobenzyl)(methyl)amino)pyridin-2-yl)piperazin-1-yl)methyl)-1-(oxetan-2-ylmethyl)-1 h-benzo[d]imidazole-6-carboxylic acid] | > 1000
O=C(O)c1ccc2nc(CN3CC=C(c4cccc(OCc5cc(Cl)ccc5F)n4)CC3)n(C[C@@H]3CCO3)c2c1 [Compound 140, (S)-2-((6-((5-chloro-2-fluorobenzyl)oxy)-3′,6′-dihydro-[2,4′-bipyridin]-1′(2′H)-yl)methyl)-1-(oxetan-2-ylmethyl)-1H-benzo[d]imidazole-6-carboxylic add] | ≤ 150
O=C(O)c1ccc2nc(CN3CCN(c4cccc(OCc5ccc(Cl)cc5F)n4)C(=O)C3)n(C[C@@H]3CCO3)c2c1 [Compound 55, (S)-2-((4-(6-((4-chloro-2-fluorobenzyl)oxy)pyridin-2-yl)-3-oxopiperazin-1-yl)methyl)-1-(oxetan-2-ylmethyl)-1H-benzo[d]imidazole-6-carboxylic acid] | ≤ 15
N#Cc1ccc(COc2ccc(F)c(N3CCN(Cc4nc5ccc(C(=O)O)cc5n4C[C@@H]4CCO4)CC3)c2)c(F)c1 [Compound 197, (S)-2-((4-(5-((4-cyano-2-fluorobenzyl)oxy)-2-fluorophenyl)piperazin-1-yl)methyl)-1-(oxetan-2-ylmethyl)-1H-benzo[d]imidazole-6-carboxylic add] | ≤ 1000
Cn1ccnc1Cn1c(CN2CCN(c3ccc4c(n3)N(Cc3ccc(Cl)cc3F)CCO4)CC2)nc2ccc(C(=O)O)cc21 [Compound 5, 2-((4-(4-(4-chloro-2-fluorobenzyl)-3,4-dihydro-2 h-pyrido[3,2-b][1,4]oxazin-6-yl)piperazin-1-yl)methyl)-1-((l-methyl-1 h-imidazol-2-yl)methyl)-1 h-benzo[d] imidazole-6-carboxylic acid] | > 1000
N#Cc1ccc2nc(CN3CC=C(c4cccc(OCc5ccc(Cl)cc5F)n4)CC3)n(C[C@@H]3CCO3)c2c1 [Compound 71, (S)-2-((4-(6-(4-chloro-2-fluorobenzyloxy)pyridin-2-yl)-5,6-dihydropyridin-1(2H)-yl)methyl)-1-(oxetan-2-ylmethyl)-1H-benzo[d]imidazole-6-carbonitrile] | > 1000
CC(C)c1ccc(COc2cccc(C3=CCN(Cc4nc5ccc(C(=O)O)cc5n4C[C@@H]4CCO4)CC3)n2)cc1 [Compound 148] | ≤ 15
O=C(O)c1ccc2nc(CN3CC=C(c4cccc(OCc5ccc(F)cc5F)n4)CC3)n(C[C@@H]3CCO3)c2c1 [Compound 141, (S)-2-((6-((2H-difluorobenzyl)oxy)-5′,6′-dihydro-[2,4′-bipyridin]-1′(2′H)-yl)methyl)-1-(oxetan-2-ylmethyl)-1H-benzo[d]imidazole-6-carboxylic add] | ≤ 15
CCn1cnc(Cn2c(CN3CC=C(c4cccc(OCc5ccc(C#N)cc5F)n4)CC3)nc3ccc(C(=O)O)cc32)c1 [Compound 183, 2-((6-((4-cyano-2-fluorobenzyl)oxy)-3′,6′-dihydro-[2H′-bipyridin]-1′(2′H)-yl)methyl)-1-((1-ethyl-1H-imidazol-4-yl)methyl)-1H-benzo[d]imidazole-6-carboxylic acid] | ≤ 150
O=C(O)c1ccc2nc(CN3CC=C(c4ccc(F)c(OCc5ccc(Cl)cc5F)c4F)CC3)n(C[C@@H]3CCO3)c2c1 [Compound 63, (S)-2-((4-(3-(4-chloro-2-fluorobenzyloxy)-2,4-difluorophenyl)-5,6-dihydropyridin-1(2H)-yl)methyl)-1-(oxetan-2-ylmethyl)-1H-benzo[d]imidazole-6-carboxylic acid] | ≤ 1000
O=C(O)c1ccc2nc(CN3CC=C(c4nc(OCc5ccc(C#CC6CC6)cc5F)c(F)cc4F)CC3)n(C[C@@H]3CCO3)c2c1 [Compound 213, (S)-2-((4-(6-(4-(cyclopropylethynyl)-2-fluorobenzyloxy)-3,5-difluoropyridin-2-yl)-5,6-dihydropyridin-1(2H)-yl)methyl)-3-(oxetan-2-ylmethyl)-3H-benzo[d]imidazole-5-carboxylic add] | ≤ 15
O=C(O)c1ccc2nc(CN3CC=C(c4cccc(OCc5ccc(Cl)c(Cl)c5)n4)CC3)n(C[C@@H]3CCO3)c2c1 [Compound 115, (S)-2-((6-((3,4-dichlorobenzyl)oxy)-3′,6′-dihydro[2,4′-bipyridin]-1′(2′H)-yl)methyl)-1-(oxetan-2-ylmethyl)-1H-benzo[d]imidazole-6-carboxylic add] | ≤ 15
O=C(O)c1ccc2nc(CN3CC=C(c4cc(-c5ccccc5)cc(OCc5ccc(Cl)cc5F)n4)CC3)n(C[C@@H]3CCO3)c2c1 [Compound 109] | ≤ 1000
